Laboratory results reported in patent publication US12377069B2, “Compounds, compositions, methods of using, and methods for preparing compounds” (UNIVERSITY OF LOUISVILLE RESEARCH FOUNDATION, INC., priority 2018, dated 2025).

Columns and labels:
HT29 or Caco2 cells = test: Tight junction protein expression (RT PCR, immunoblot, confocal); format: cell-based, human; settings: 24 h; for tight junction protein levels (Western blots; Cldn4 confocal imaging): HT29 and Caco2, 50 μM
Experimental: Real time PCR: Total RNA was isolated from cells/tissue using Maxwell® 16 LEV simplyRNA tissue kit (Promega) and reverse transcribed with TaqManC Reverse transcription Kit (Applied Biosystems, CA, USA). The transcribed cDNA (after dilution) was mixed with 100 nM gene specific primers (Real time primers LLC) and 1×SYBR green reaction mix (Power SYBR® Green PCR Master Mix; Applied Biosystems, CA, USA). Changes in gene expression was analyzed using CFX96™ Real-Time System (Bio Rad) and fold change in expression was calculated using 2^ΔΔCT method using GAPDH/0-actin as house keeping gene and normalized with untreated control.
Immunoblots (Western blots): The total protein lysates were collected either from colon tissue/cells using radioimmunoprecipitation assay (RIPA) buffer (Sigma-Aldrich, USA) and quantified using BCA protein quantification kit (Thermo Scientific) as per instructional manual. Total protein (20-50 μg) of was resolved on NuPAGE™ 4-12% Bis-Tris gel (Novex Life technologies) and transferred to polyvinylidene difluoride membrane (0.22 μm pore; Millipore, USA). After blocking with 5% (w/v) skim milk powder (containing 1×TBS) for 1 h, the membrane was then incubated with respective antibodies at 4° C. overnight (dilutions of respective antibodies is given in Table A1). Next day, respective secondary antibody conjugated with Horseradish peroxidase were probed and the chemiluminescent substrate was used to detect the protein bands (ImageQuant LAS 4000). Densitometry analysis of bands were done using ImageJ software. Antibodies for Cldn4, Ocln, Cldn1, Cyp1A1, AhR, HO1, NQO1, Keap1, β-actin and Lamin B were purchased from Santa Cruz Biotechnologies (USA) and Nrf2 from Novus Biologicals (USA).
Confocal Imaging: HT29 or CaCo2 or BMDM cells (50,000 cells/well) were plated on to 8-well chambered slides (154534PK; ThermoFisher Scientific) allowed them to grow overnight. The cells were induced with vehicle (0.01% DMSO) or UroA (50 μM) or UAS03 (50 μM) for desired time points and fixed with cold methonol. […]

Cyp1A1 = Cyp1A1 expression and enzyme activity in vitro (P450-Glo, EROD); format: cell-based, human; settings: for Cyp1A1 enzyme activity in colon epithelial cells: HT29, 24 h, P450-Glo and EROD
Experimental: Measurment of Cyp1A1 enzyme activities in vitro. EROD assay: HT-29 cells (15,000 cells/well) treated with vehicle, UroA and UAS03 (24 hrs), were rinsed with HBSS buffer, and then fresh HBSS buffer was added along with 5 μM of 7-ethoxyresorufin. Cells were further incubated at 37° C. for 1 h. After the incubation time, fluorescence (Exc. 530 nm, Em. 580 nm) was measured and product (resorufin) formed was calculated from calibration standard and normalized with protein concentration.
P450-Glo Cyp1A1 luminiscence assay: HT29 cells (25,000 cells/well) were plated in 48 well plate. Cell were then treated with UroA (0.1, 1, 10, 25 and 50 μM) or UAS03 (0.1, 1, 10, 25 and 50 μM) or FICZ (0.1, 1, 10, 25 and 50 nM) for 24 hrs. After treatment, cells were washed to remove any residual drugs, and fresh medium containing Cyp1A1 substrate (as per protocol provided with kit Cat. #V8751; Promega) for 3 hr. After incubation, 25 μl of culture medium was removed from each well and transferred to a 96-well white opaque plate and 25 μl of luciferin detection reagent was added to initiate the luminescence reaction and plate was incubated at room temperature for 20 min. After incubation, luminescence was recorded in luminometer. The data reported as fold change over vehicle treatment.

HT29 cells = test: AhR/Cyp1A1 siRNA knockdown and Cyp1A1 CRISPR/Cas9 deletion; format: cell-based, human; settings: 24 h; for Cldn4 or NQO1 in Cyp1A1 deleted cells: CRISPR/Cas9, 50 μM; for Cldn4 induction in AhR or Cyp1A1 knockdown cells: siRNA, 50 μM
Experimental: Small interfering RNA (siRNA) mediated knockdown experiment: The AhR siRNA (SR300136) and Cyp1A1 siRNA (SR301093) was purchased from Origene. For knockdown experiments, HT29 cells (0.5×10^6 cells/well) were plated in 6 well plate and grown for 24 hr. The AhR, Cyp1A1 and control-siRNA was transfected into HT29 cells using Lipofectamine® RNAiMAX reagent (ThermoFisher Scientific) as per instruction given. After 24 hr of transfections, cell were induced with vehicle (0.01% DMSO), UroA (50 μM) and UAS03 (50 μM) for 24 hr. After treatment with inducers, cells were lysed using RIPA buffer and total protein was used to analyse the expression of AhR, Cyp1A1 and cldn4 by western blot.
Cyp1A1 deletion by CRISPR/Cas9 method: HT29 cells (1.5×10^5) were plated in 6-well in antibiotic free standard growth medium 24 h prior to transfection. At 60% confluency cells, cell were co-transfected with 2 μg each of CRISPR/Cas9 KO Plasmid (sc-400511-KO-2; Santa cruz) and HDR Plasmid (sc-400511-HDR-2; Santa cruz) using UltraCruz® Transfection Reagent (sc-395739; Santa Cruz). Medium was replaced with selective medium (containing 4 μg/mL puromycin) 96 hr post transfection. Transfection was confirmed with fluorescence microscopy and western blot (CYP1A1). The double positive cells for GFP and RFP were sorted using MoFlo XDP sorting instrument (Beckman Coulter). The deletion of Cyp1A1 in these sorted was confirmed by Western blots. These cells were then plated in 6-well plate for in standard medium for evaluating the effect of UroA/UAS03 on Cldn4 expression. After 24 hr of UroA/UAS03 treatment cells were harvested for protein and Cldn4 expression was investigated along with normal HT29 cells.

C57BL/6 mice = test: 28-day repeated dose toxicity study; settings: oral 20 or 40 mg/kg daily, 28 days
Experimental: 28-day repeated dose toxicity study: To evaluate toxicity of UroA and UAS03, we performed 28-days repeated dose toxicity study. Mice were fed (oral gavage) with UroA (20 and 40 mg/kg/day) and UAS03 (20 and 40 mg/kg/day) daily for 28 days. Body weight, food and water intake were assessed weekly. After 28 days, mice were sacrificed and gross examination of all major organs were performed. Blood was collected to obtain serum. Serum alanine aminotransferase (ALT) and asparate aminotransferase (AST) were analyzed using ALT/AST kit (BioVision) as per instructional manual.

| SMILES | tight junction protein levels (Western blots; Cldn4 confocal imaging) (HT29 or Caco2 cells) | Cyp1A1 enzyme activity in colon epithelial cells (Cyp1A1) | Cldn4 or NQO1 in Cyp1A1 deleted cells (HT29 cells) | Cldn4 induction in AhR or Cyp1A1 knockdown cells (HT29 cells) | serum AST and ALT levels at day 28 (C57BL/6 mice) | signs of toxicity (body weights, CBC counts, serum ALT and AST) (C57BL/6 mice) | expression of ZO-1 and Ocln1 (real time PCR) (HT29 or Caco2 cells; HT29, 50 μM) | Cyp1A1 expression (RNA-Seq and real time PCR) (Cyp1A1; HT29, 50 μM, 24 h) |
| --- | --- | --- | --- | --- | --- | --- | --- | --- |
| Oc1ccc2c(c1)COc1cc(O)ccc1-2 [UAS03, 6H-benzo[c]chromene-3,8-diol] | increased levels | induced Cyp1A1 activity | did not appear to upregulate | does not appear to induce Cldn4 | no significant differences | did not exhibit any signs of toxicity | – | – |
| O=c1oc2cc(O)ccc2c2ccc(O)cc12 [UroA, 3,8-dihydroxy-6H-dibenzo[b,d]pyran-6-one] | increased levels | induced Cyp1A1 activity | did not appear to upregulate | does not appear to induce Cldn4 | no significant differences | – | increase in expression | upregulated |
